According to patent US8987195B2 (priority 2012, dated 2015):
pEC50: −log10 of the molar value. Read-outs that look alike come from different tables or passages of the source.

Assays:
[1] = system: HCV genotype 1b replicon; assay: HCV replicon assay, genotype 1b replicon EC50; type: cell-based, Hepatitis C virus; settings: Hepatitis C virus, genotype 1b replicon, read-out: EC50 [gt-1b]
In short: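 Stable neomycin-selected genotype 1b replicon cells, some carrying luciferase:Neo^r fusion, plated without G418 with a compound dilution series and incubated 24-48 h. Read-out was RNA (^32P-probe protection or TaqMan, normalized to cyclophilin A) or luciferase activity. EC50 from four-parameter fit as percent of DMSO control.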

[2] = target: HCV NS3/4A protease genotype 1b (Hepatitis C virus genotype 1b, UniProt P26663); assay: HCV NS3/4A protease time-resolved fluorescence (TRF) assay, Ki against genotype 1b; type: biochemical; settings: IC50 [gt-1b] (nM), NS3/4A genotype 1b, enzyme 0.2 nM
In short: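 Time-resolved fluorescence readout of NS3/4A cleavage of 25 nM europium-labelled peptide over 2.5 h at room temperature, enzyme levels set for signal/background 10–30 (0.2, 0.4, 0.025 nM for 1b, A156T, 3a). Ki by IC50=Ki(1+[S]/KM).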

SMILES | pEC50 [1] | IC50 [2] | pEC50 ([1]; K+ salt) | IC50 ([2]; K+ salt)
Cc1nc2ccc(F)cc2c2c1O[C@]1(CC2)C[C@H]2C(=O)N[C@]3(C(=O)NS(=O)(=O)C4(C)CC4)C[C@H]3/C=C\CCCCC[C@H](NC(=O)OCC(C)C)C(=O)N2C1 [Example 218, 2-methylpropyl [(2R,6S,12Z,13aS,14aR,16aS)-9′-fluoro-5′-methyl-14a-{[(1-methylcyclopropyl)sulfonyl]carbamoyl}-5,16-dioxo-1,1′,2′,5,6,7,8,9,10,11,13a,14,14a,15,16,16a-hexadecahydrospiro[cyclopropa[e]pyrrolo[1,2-a][1,4]diazacyclopentadecine-2,3′-pyrano[2,3-c]quinolin]-6-yl]carbamate] | 8.67 | 0.005 nM |  | 
Cc1nc2ccc(F)cc2c2c1O[C@]1(CC2)C[C@H]2C(=O)N[C@]3(C(=O)NS(=O)(=O)C4(C)CC4)C[C@H]3/C=C\CCCCC[C@H](NC(=O)OC3CCCC3)C(=O)N2C1 [Example 219, cyclopentyl [(2R,6S,12Z,13aS,14aR,16aS)-9′-fluoro-5′-methyl-14a-{[(1-methylcyclopropyl)sulfonyl]carbamoyl}-5,16-dioxo-1,1′,2′,5,6,7,8,9,10,11,13a,14,14a,15,16,16a-hexadecahydrospiro[cyclopropa[e]pyrrolo[1,2-a][1,4]diazacyclopentadecine-2,3′-pyrano[2,3-c]quinolin]-6-yl]carbamate] | 8.92 | 0.004 nM |  | 
Cc1nc2ccc(Cl)cc2c2c1O[C@]1(CC2)C[C@H]2C(=O)N[C@]3(C(=O)NS(=O)(=O)C4(C)CC4)C[C@H]3/C=C\CCCCC[C@H](NC(=O)OCC3CCC3)C(=O)N2C1 [Example 221, cyclobutylmethyl [(2R,6S,12Z,13aS,14aR,16aS)-9′-chloro-5′-methyl-14a-{[(1-methylcyclopropyl)sulfonyl]carbamoyl}-5,16-dioxo-1,1′,2′,5,6,7,8,9,10,11,13a,14,14a,15,16,16a-hexadecahydrospiro[cyclopropa[e]pyrrolo[1,2-a][1,4]diazacyclopentadecine-2,3′-pyrano[2,3-c]quinolin]-6-yl]carbamate] | 7.94 | 0.008 nM |  | 
Cc1nc2ccc(Cl)cc2c2c1O[C@]1(CC2)C[C@H]2C(=O)N[C@]3(C(=O)NS(=O)(=O)C4(C)CC4)C[C@H]3/C=C\CCCCC[C@H](NC(=O)OCC3CC3)C(=O)N2C1 [Example 222, cyclopropylmethyl [(2R,6S,12Z,13aS,14aR,16aS)-9′-chloro-5′-methyl-14a-{[(1-methylcyclopropyl)sulfonyl]carbamoyl}-5,16-dioxo-1,1′,2′,5,6,7,8,9,10,11,13a,14,14a,15,16,16a-hexadecahydrospiro[cyclopropa[e]pyrrolo[1,2-a][1,4]diazacyclopentadecine-2,3′-pyrano[2,3-c]quinolin]-6-yl]carbamate] |  |  | 8.32 | 0.009 nM
Cc1nc2cc(F)c(F)cc2c2c1O[C@]1(CC2)C[C@H]2C(=O)N[C@]3(C(=O)NS(=O)(=O)C4(C)CC4)C[C@H]3/C=C\CCCCC[C@H](NC(=O)OCC3(C)CC3)C(=O)N2C1 [Example 223, (1-methylcyclopropyl)methyl [(2R,6S,12Z,13aS,14aR,16aS)-8′,9′-difluoro-5′-methyl-14a-{[(1-methylcyclopropyl)sulfonyl]carbamoyl}-5,16-dioxo-1,1′,2′,5,6,7,8,9,10,11,13a,14,14a,15,16,16a-hexadecahydrospiro[cyclopropa[e]pyrrolo[1,2-a][1,4]diazacyclopentadecine-2,3′-pyrano[2,3-c]quinolin]-6-yl]carbamate] | 7.96 | 0.013 nM |  | 
Cc1nc2cc(F)c(F)cc2c2c1O[C@]1(CC2)C[C@H]2C(=O)N[C@]3(C(=O)NS(=O)(=O)C4(C)CC4)C[C@H]3/C=C\CCCCC[C@H](NC(=O)OCC3CC3)C(=O)N2C1 [Example 224, cyclopropylmethyl [(2R,6S,12Z,13aS,14aR,16aS)-8′,9′-difluoro-5′-methyl-14a-{[(1-methylcyclopropyl)sulfonyl]carbamoyl}-5,16-dioxo-1,1′,2′,5,6,7,8,9,10,11,13a,14,14a,15,16,16a-hexadecahydrospiro[cyclopropa[e]pyrrolo[1,2-a][1,4]diazacyclopentadecine-2,3′-pyrano[2,3-c]quinolin]-6-yl]carbamate] | 8.17 | 0.019 nM |  | 
